# Laboratory results as given in ChEMBL document CHEMBL1201862, “PubChem BioAssay data set” (2004).
#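 Tested at 5 concentrations; 48 h exposure; 96-well plates; endpoints linearly interpolated, else capped at highest concentration. Here, GI50 denotes the concentration required for 50% inhibition of growth.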 The source made the active and inactive calls. No stated cut-off is given here; in the data, active = GI50 up to about 1.1 µM and inactive = higher.
# Experiments:
# Test in all cases: growth of human tumour cells (NCI), 48 h
# BT-549 = system: BT-549
# CCRF-CEM = system: CCRF-CEM
# HCC 2998 = system: HCC 2998
# HCT-116 = system: HCT-116
# HOP-92 = system: HOP-92
# Hs-578T = system: Hs-578T
# IGROV-1 = system: IGROV-1
# K562 = system: K562
# LOX IMVI = system: LOX IMVI
# MDA-MB-435 = system: MDA-MB-435
# MDA-N = system: MDA-N
# Malme-3M = system: Malme-3M
# NCI-H226 = system: NCI-H226
# OVCAR-5 = system: OVCAR-5
# SF-295 = system: SF-295
# SNB-19 = system: SNB-19
# SR = system: SR
# CAKI-1 = system: CAKI-1
# MCF7 = system: MCF7
SMILES,GI50 (BT-549),GI50 (CCRF-CEM),GI50 (HCC 2998),GI50 (HCT-116),GI50 (HOP-92),GI50 (Hs-578T),GI50 (IGROV-1),GI50 (K562),GI50 (LOX IMVI),GI50 (MDA-MB-435),GI50 (MDA-N),GI50 (Malme-3M),GI50 (NCI-H226),GI50 (OVCAR-5),GI50 (SF-295),GI50 (SNB-19),GI50 (SR),GI50 (CAKI-1),GI50 (MCF7)
CC(=O)CSCc1ccccn1,47.5 µM (inactive),39.9 µM (inactive),39.9 µM (inactive),45.3 µM (inactive),38.6 µM (inactive),2.69 µM (inactive),37.8 µM (inactive),23.6 µM (inactive),41.5 µM (inactive),33.4 µM (inactive),37.8 µM (inactive),4.72 µM (inactive),19.9 µM (inactive),> 100 µM (inactive),80.9 µM (inactive),50.9 µM (inactive),21.5 µM (inactive),–,–
Cc1ccc(/N=N/c2c(O)c(C(=O)O)cc3ccccc23)cc1C,> 100 µM (inactive),> 100 µM (inactive),> 100 µM (inactive),> 100 µM (inactive),> 100 µM (inactive),42.3 µM (inactive),> 100 µM (inactive),82.6 µM (inactive),–,> 100 µM (inactive),–,> 100 µM (inactive),> 100 µM (inactive),> 100 µM (inactive),> 100 µM (inactive),46.1 µM (inactive),> 100 µM (inactive),> 100 µM (inactive),> 100 µM (inactive)
O=C(COc1ccc(OCC(=O)N2C(=O)CS/C2=N\c2ccccc2)cc1)N1C(=O)CS/C1=N\c1ccccc1,18 µM (inactive),–,14.9 µM (inactive),10.6 µM (inactive),26.2 µM (inactive),–,2.38 µM (inactive),5.9 µM (inactive),–,23.7 µM (inactive),20.7 µM (inactive),4 µM (inactive),26.5 µM (inactive),12.7 µM (inactive),33.3 µM (inactive),31.6 µM (inactive),–,20.6 µM (inactive),19 µM (inactive)
C=C1C(=O)OC2CC(C)C(C(CC(C)=O)OC(C)=O)=CCC12 (stereo not given),6.19 µM (inactive),2.61 µM (inactive),10.5 µM (inactive),1.79 µM (inactive),6.87 µM (inactive),> 100 µM (inactive),13.3 µM (inactive),3.24 µM (inactive),6.78 µM (inactive),16.3 µM (inactive),–,2.02 µM (inactive),34.1 µM (inactive),17.6 µM (inactive),23.8 µM (inactive),36.6 µM (inactive),2.88 µM (inactive),3.16 µM (inactive),4.74 µM (inactive)
COc1cccc(/C=C2\S/C(=N/Nc3nc(C)c(C)s3)NC2=O)c1O,> 100 µM (inactive),–,61.5 µM (inactive),> 100 µM (inactive),> 100 µM (inactive),–,34.3 µM (inactive),–,95.7 µM (inactive),> 100 µM (inactive),> 100 µM (inactive),–,> 100 µM (inactive),> 100 µM (inactive),> 100 µM (inactive),> 100 µM (inactive),–,> 100 µM (inactive),> 100 µM (inactive)
CCOC(=S)SSSC(=S)OCC,–,30.5 µM (inactive),68.4 µM (inactive),20.8 µM (inactive),> 100 µM (inactive),> 100 µM (inactive),–,26.3 µM (inactive),25.1 µM (inactive),54.3 µM (inactive),49.3 µM (inactive),16.3 µM (inactive),82.6 µM (inactive),28.6 µM (inactive),51.5 µM (inactive),65 µM (inactive),13.5 µM (inactive),29.9 µM (inactive),28.2 µM (inactive)
NC(=O)CCC(NC(=O)c1cccc2c(=O)c3ccccc3[nH]c12)C(=O)O (stereo not given),–,–,–,> 100 µM (inactive),77.3 µM (inactive),> 100 µM (inactive),> 100 µM (inactive),> 100 µM (inactive),> 100 µM (inactive),> 100 µM (inactive),> 100 µM (inactive),> 100 µM (inactive),> 100 µM (inactive),> 100 µM (inactive),> 100 µM (inactive),> 100 µM (inactive),> 100 µM (inactive),–,> 100 µM (inactive)
CCCOc1ccc2sc(NC(=O)c3cc([N+](=O)[O-])cc([N+](=O)[O-])c3)nc2c1,47.8 µM (inactive),30.3 µM (inactive),–,20.6 µM (inactive),16 µM (inactive),13.7 µM (inactive),10.6 µM (inactive),65.5 µM (inactive),20.8 µM (inactive),36.7 µM (inactive),–,25.4 µM (inactive),27.9 µM (inactive),> 100 µM (inactive),35.6 µM (inactive),42.5 µM (inactive),–,28.6 µM (inactive),40.2 µM (inactive)
CC(C)(C)[Si](C)(C)OCC1OC(n2ccc(=O)[nH]c2=O)C(O[Si](C)(C)C(C)(C)C)[C@@]12O[C@H]2C(N)=O (stereo not given in full),18.5 µM (inactive),> 10 µM (inactive),11.9 µM (inactive),4.08 µM (inactive),> 10 µM (inactive),–,2.86 µM (inactive),7.38 µM (inactive),3.4 µM (inactive),4.92 µM (inactive),5.37 µM (inactive),–,0.445 µM (active),11.8 µM (inactive),4.56 µM (inactive),10.9 µM (inactive),–,11.6 µM (inactive),3.97 µM (inactive)
SC1=NC2=C(CSC/C2=C\c2ccccc2)C(c2ccccc2)N1 (stereo not given),26.2 µM (inactive),36.6 µM (inactive),42.5 µM (inactive),29.5 µM (inactive),37.6 µM (inactive),–,> 100 µM (inactive),30.3 µM (inactive),38.1 µM (inactive),–,31.3 µM (inactive),28.6 µM (inactive),56.4 µM (inactive),> 100 µM (inactive),21.6 µM (inactive),39.6 µM (inactive),32.7 µM (inactive),> 100 µM (inactive),30.9 µM (inactive)
O=C1CCCCC/C1=C\c1ccc(Cl)cc1,31.2 µM (inactive),22.6 µM (inactive),26.2 µM (inactive),35.4 µM (inactive),35.7 µM (inactive),20.8 µM (inactive),67.6 µM (inactive),–,28.9 µM (inactive),20.6 µM (inactive),28.6 µM (inactive),52.6 µM (inactive),81.1 µM (inactive),78.9 µM (inactive),22 µM (inactive),55.1 µM (inactive),23.1 µM (inactive),37.8 µM (inactive),–
CCSc1nc(-c2cccs2)nc2ccc(I)cc12,> 100 µM (inactive),> 100 µM (inactive),> 100 µM (inactive),> 100 µM (inactive),–,–,> 100 µM (inactive),> 100 µM (inactive),> 100 µM (inactive),> 100 µM (inactive),> 100 µM (inactive),–,> 100 µM (inactive),> 100 µM (inactive),> 100 µM (inactive),> 100 µM (inactive),> 100 µM (inactive),> 100 µM (inactive),13.1 µM (inactive)
